Tests used:
ALOMY [1] = test: Pre-emergence action against ALOMY; assay type: in vivo, Alopecurus myosuroides; settings: dosage 320 g/ha; pre-emergence; scored visually after 3 weeks vs untreated controls; 100% = plants have died, 0% = like control plants
In short: (§1)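 Seeds sown in sandy loam in wood-fiber pots and covered with soil. Greenhouse growth; visual damage scored after 3 weeks versus untreated controls (100% = dead, 0% = like control).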

AVEFA [2] = test: Pre-emergence action against AVEFA; assay type: in vivo, Avena fatua; settings: dosage 320 g/ha, scored visually after 3 weeks vs untreated controls
In short: as §1

CYPES [3] = test: Pre-emergence action against CYPES; assay type: in vivo, Cyperus esculentus; settings: pre-emergence, dosage 320 g/ha, scored visually after 3 weeks vs untreated controls
In short: as §1

ECHCG [4] = test: Pre-emergence action against ECHCG; assay type: in vivo, Echinochloa crus-galli; settings: pre-emergence, dosage 320 g/ha, scored visually after 3 weeks vs untreated controls
In short: as §1

LOLRI [5] = test: Pre-emergence action against LOLRI; assay type: in vivo, Lolium rigidum; settings: dosage 320 g/ha, scored visually after 3 weeks vs untreated controls
In short: as §1

SETVI [6] = test: Pre-emergence action against SETVI; assay type: in vivo, Setaria viridis; settings: pre-emergence, dosage 320 g/ha, scored visually after 3 weeks vs untreated controls
In short: as §1

ABUTH [7] = test: Pre-emergence action against ABUTH; assay type: in vivo, Abutilon theophrasti; settings: pre-emergence, dosage 320 g/ha, scored visually after 3 weeks vs untreated controls
In short: as §1

AMARE [8] = test: Pre-emergence action against AMARE; assay type: in vivo, Amaranthus retroflexus; settings: pre-emergence, dosage 320 g/ha, scored visually after 3 weeks vs untreated controls
In short: as §1

MATIN [9] = test: Pre-emergence action against MATIN; assay type: in vivo, Matricaria inodora; settings: Dosage 320 g/ha, pre-emergence
In short: as §1

PHBPU [10] = test: Pre-emergence action against PHBPU; assay type: in vivo, Pharbitis purpurea; settings: Dosage 320 g/ha, pre-emergence
In short: as §1

POLCO [11] = test: Pre-emergence action against POLCO; assay type: in vivo, Polygonum convolvulus; settings: Dosage 320 g/ha, pre-emergence
In short: as §1

STEME [12] = test: Pre-emergence action against STEME; assay type: in vivo, Stellaria media; settings: Dosage 320 g/ha, pre-emergence
In short: as §1

VIOTR [13] = test: Pre-emergence action against VIOTR; assay type: in vivo, Viola tricolor; settings: Dosage 320 g/ha, pre-emergence
In short: as §1

VERPE [14] = test: Pre-emergence action against VERPE; assay type: in vivo, Veronica persica; settings: Dosage 320 g/ha, pre-emergence
In short: as §1

HORMU = test: Pre-emergence action against HORMU; assay type: in vivo, Hordeum murinum; settings: Dosage 320 g/ha
In short: as §1

ALOMY [15] = test: Post-emergence action against ALOMY; assay type: in vivo, Alopecurus myosuroides; settings: Dosage 80 g/ha, post-emergence
In short: (§2)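 Weeds grown in sandy loam in greenhouse, treated at one-leaf stage (2–3 weeks after sowing) with WP or EC formulations sprayed as aqueous suspension/emulsion at 600 to […] water with 0.2% wetting agent. Visual rating after about 3 weeks versus untreated controls, as % herbicidal action (100% = plants dead, 0% = like control).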

CYPES [16] = test: Post-emergence action against CYPES; assay type: in vivo, Cyperus esculentus; settings: post-emergence, dosage 80 g/ha, visual assessment about 3 weeks after treatment vs untreated controls
In short: as §2

ECHCG [17] = test: Post-emergence action against ECHCG; assay type: in vivo, Echinochloa crus-galli; settings: post-emergence, dosage 80 g/ha, visual assessment about 3 weeks after treatment vs untreated controls
In short: as §2

LOLRI [18] = test: Post-emergence action against LOLRI; assay type: in vivo, Lolium rigidum; settings: dosage 80 g/ha, visual assessment about 3 weeks after treatment vs untreated controls
Experimental: (§3) Seeds of monocotyledonous and dicotyledonous weed and crop plants are laid out in sandy loam soil in wood-fiber pots, covered with soil and cultivated in a greenhouse under good growth conditions. 2 to 3 weeks after sowing, the test plants are treated at the one-leaf stage. The compounds of the invention, formulated in the form of wettable powders (WP) or as emulsion concentrates (EC), are then sprayed onto the green parts of the plants in the form of an aqueous suspension or emulsion at a water application rate equating to […], with addition of 0.2% wetting agent. After the test plants have been left to stand in the greenhouse under optimal growth conditions for about 3 weeks, the action of the preparations is assessed visually in comparison to untreated controls (herbicidal action in percent (%): 100% activity=the plants have died, 0% activity=like control plants). […] At the same time, inventive compounds leave Gramineae crops such as barley, wheat, rye, millet/Sorghum, corn or rice virtually undamaged when applied post-emergence, even at high active ingredient dosages. In addition, some substances are also harmless to dicotyledonous crops such as soya, cotton, oilseed rape, sugar beet or potatoes. Some of the compounds according to the invention have high selectivity and are therefore suitable for controlling unwanted vegetation in agricultural crops by the post-emergence method. The data of Tables B18 to B34 below illustrate, in an exemplary manner, the […] herbicidal action of the compounds according to the invention, the herbicidal activity being stated in percent.

SETVI [19] = test: Post-emergence action against SETVI; assay type: in vivo, Setaria viridis; settings: post-emergence, dosage 80 g/ha, visual assessment about 3 weeks after treatment vs untreated controls
In short: as §2

ABUTH [20] = test: Post-emergence action against ABUTH; assay type: in vivo, Abutilon theophrasti; settings: post-emergence, dosage 80 g/ha, visual assessment about 3 weeks after treatment vs untreated controls
In short: as §2

AMARE [21] = test: Post-emergence action against AMARE; assay type: in vivo, Amaranthus retroflexus; settings: post-emergence, dosage 80 g/ha, visual assessment about 3 weeks after treatment vs untreated controls
In short: as §2

MATIN [22] = test: Post-emergence action against MATIN; assay type: in vivo, Matricaria inodora; settings: post-emergence, dosage 80 g/ha, visual assessment about 3 weeks after treatment vs untreated controls
In short: as §2

PHBPU [23] = test: Post-emergence action against PHBPU; assay type: in vivo, Pharbitis purpurea; settings: post-emergence, dosage 80 g/ha
In short: as §2

POLCO [24] = test: Post-emergence action against POLCO; assay type: in vivo, Polygonum convolvulus; settings: post-emergence, dosage 80 g/ha
In short: as §2

STEME [25] = test: Post-emergence action against STEME; assay type: in vivo, Stellaria media; settings: post-emergence, dosage 80 g/ha
In short: as §2

VIOTR [26] = test: Post-emergence action against VIOTR; assay type: in vivo, Viola tricolor; settings: post-emergence, dosage 80 g/ha
In short: as §2

VERPE [27] = test: Post-emergence action against VERPE; assay type: in vivo, Veronica persica; settings: dosage 80 g/ha
In short: as §2

DIGSA [28] = test: Pre-emergence action against DIGSA; assay type: in vivo, Digitaria sanguinalis; settings: dosage 320 g/ha, scored visually after 3 weeks vs untreated controls
Excerpt: Seeds of monocotyledonous and dicotyledonous weed plants and crop plants are laid out in sandy loam soil in wood-fiber pots and covered with soil. The compounds of the invention, formulated in the form of wettable powders (WP) or as emulsion concentrates (EC), are then applied to the surface of the covering soil in the form of an aqueous suspension or emulsion at a water application rate equating to […], with addition of 0.2% wetting agent. After the treatment, the pots are placed in a greenhouse and kept under good growth conditions for the trial plants. The damage to the test plants is scored visually after a test period of 3 weeks by comparison with untreated controls (herbicidal activity in percent (%): 100% activity=the plants have died, 0% activity=like control plants).

DIGSA [29] = test: Post-emergence action against DIGSA; assay type: in vivo, Digitaria sanguinalis; settings: dosage 80 g/ha, visual assessment about 3 weeks after treatment vs untreated controls
Experimental: as §3

AVEFA [30] = test: Post-emergence action against AVEFA; assay type: in vivo, Avena fatua; settings: post-emergence, dosage 80 g/ha, visual assessment about 3 weeks after treatment vs untreated controls
In short: as §2

Compound	Pre-emergence action against ECHCG (herbicidal activity) (ECHCG [4]) [%]	SETVI (Table B8, pre-emergence herbicidal activity) (SETVI [6]) [%]	Pre-emergence action against ABUTH (herbicidal activity) (ABUTH [7]) [%]	Pre-emergence action against AMARE (herbicidal activity) (AMARE [8]) [%]	Pre-emergence action against MATIN (MATIN [9]) [%]	Pre-emergence action against PHBPU (PHBPU [10]) [%]	Pre-emergence action against STEME (STEME [12]) [%]	Pre-emergence action against VIOTR (VIOTR [13]) [%]	Pre-emergence action against VERPE (VERPE [14]) [%]	Post-emergence action against ECHCG (herbicidal action in percent) (ECHCG [17]) [%]	Post-emergence action against SETVI (herbicidal action in percent) (SETVI [19]) [%]	Post-emergence action against ABUTH (herbicidal action in percent) (ABUTH [20]) [%]	Post-emergence action against AMARE (herbicidal action in percent) (AMARE [21]) [%]	Post-emergence action against MATIN (herbicidal action in percent) (MATIN [22]) [%]	Post-emergence action against PHBPU (PHBPU [23])	Post-emergence action against STEME (STEME [25])	Post-emergence action against VIOTR (VIOTR [26])	Post-emergence action against VERPE (VERPE [27])	Pre-emergence action against DIGSA (herbicidal activity) (DIGSA [28]) [%]	Post-emergence action against DIGSA (herbicidal action in percent) (DIGSA [29]) [%]	also measured
CC1CC1C(=O)c1c(C(F)(F)F)ccc(C(=O)Nc2nnnn2C)c1Cl (stereo not shown) [1-148]	100	100	100	100	100	100	100	100	100	100	100	100	100	100	100	100	90	100			Pre-emergence action against ALOMY (herbicidal activity in percent) (ALOMY [1]): 100%; Pre-emergence action against AVEFA (herbicidal activity) (AVEFA [2]): 90%; Pre-emergence action against CYPES (herbicidal activity) (CYPES [3]): 90%; Pre-emergence action against LOLRI (herbicidal activity) (LOLRI [5]): 100%; Pre-emergence action against POLCO (POLCO [11]): 90%; Pre-emergence action against HORMU (HORMU): 80%; Post-emergence action against ALOMY (ALOMY [15]): 80%; Post-emergence action against CYPES (herbicidal action in percent) (CYPES [16]): 90%; Post-emergence action against LOLRI (herbicidal action in percent) (LOLRI [18]): 80%; Post-emergence action against POLCO (POLCO [24]): 80
Cn1nnnc1NC(=O)c1ccc(C(F)(F)F)c(C(=O)C2CCCC2)c1Cl [1-154]	100	80	100	100	100		100	100	90			90	90	80	80	90	80	80	100	80	
CCn1nnnc1NC(=O)c1ccc(C(F)(F)F)c(C(=O)C(F)F)c1Cl [2-163]	90	100	100	100	100	100	100	100		90	80	90	100	90	90	100	100		90	100	
CCn1nnnc1NC(=O)c1ccc(C(F)F)c(C(=O)C2CC2)c1Cl [2-168]	100	100	100	100	100	80	100	100	100	100	100	100	100	100	100	100	100	80			Pre-emergence action against ALOMY (herbicidal activity in percent) (ALOMY [1]): 100%; Pre-emergence action against AVEFA (herbicidal activity) (AVEFA [2]): 90%; Pre-emergence action against LOLRI (herbicidal activity) (LOLRI [5]): 100%; Pre-emergence action against POLCO (POLCO [11]): 90%; Pre-emergence action against HORMU (HORMU): 90%; Post-emergence action against ALOMY (ALOMY [15]): 100%; Post-emergence action against AVEFA (herbicidal action in percent) (AVEFA [30]): 100%; Post-emergence action against CYPES (herbicidal action in percent) (CYPES [16]): 100%; Post-emergence action against LOLRI (herbicidal action in percent) (LOLRI [18]): 100%; Post-emergence action against POLCO (POLCO [24]): 100
CCCn1nnnc1NC(=O)c1ccc(C(F)(F)F)c(C(=O)C2CCC2)c1Cl [3-153]		80	100	100	90			100				100	100	100		100			100	80	
CCCn1nnnc1NC(=O)c1ccc(C(F)(F)F)c(C(=O)C2CCC2)c1SC [3-280]	80	100	100	100	90		100	100		80		100	100	90	80	100	80		100	80	
